Reference: patent US12410171B2, “Tropomyosin receptor kinase (TRK) degradation compounds and methods of use” (Cullgen (Shanghai), Inc., priority 2020, dated 2025)

What follows are compounds tested against T1, TPM3-TRKA fusion protein (Homo sapiens, UniProt P04629) (assay: TPM3-TRKA fusion protein levels in KM12 cells (Western blot)). Conditions: 16 h; TPM3-TRKA degradation in KM12 cells at 10 nM compound, category of percentage degradation; read-out: Degradation (at 10 nM).
T1 construct: The resulted chimeric proteins always retain the kinase domain of TRK proteins; TPM3 (fusion partner, N-terminal part of tropomyosin alpha-3, P06753); endogenous in cells; host or cells: KM12 colon cancer cells; the other entry of the earlier key: TPM3 (P06753, Tropomyosin alpha-3 chain)
Assay type: cell-based
Method in brief: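 KM12 colon cancer cells were treated with DMSO or compounds at 0.1–100 nM, 0.4–30 nM or other stated concentrations for 4, 8–16 or 16 h. RIPA lysates were BCA-normalized and resolved by SDS-PAGE. TPM3-TRKA was detected by chemiluminescent Western blot, with bands quantified by densitometry.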

T1 sequence (P04629 with tags, fused parts or gaps): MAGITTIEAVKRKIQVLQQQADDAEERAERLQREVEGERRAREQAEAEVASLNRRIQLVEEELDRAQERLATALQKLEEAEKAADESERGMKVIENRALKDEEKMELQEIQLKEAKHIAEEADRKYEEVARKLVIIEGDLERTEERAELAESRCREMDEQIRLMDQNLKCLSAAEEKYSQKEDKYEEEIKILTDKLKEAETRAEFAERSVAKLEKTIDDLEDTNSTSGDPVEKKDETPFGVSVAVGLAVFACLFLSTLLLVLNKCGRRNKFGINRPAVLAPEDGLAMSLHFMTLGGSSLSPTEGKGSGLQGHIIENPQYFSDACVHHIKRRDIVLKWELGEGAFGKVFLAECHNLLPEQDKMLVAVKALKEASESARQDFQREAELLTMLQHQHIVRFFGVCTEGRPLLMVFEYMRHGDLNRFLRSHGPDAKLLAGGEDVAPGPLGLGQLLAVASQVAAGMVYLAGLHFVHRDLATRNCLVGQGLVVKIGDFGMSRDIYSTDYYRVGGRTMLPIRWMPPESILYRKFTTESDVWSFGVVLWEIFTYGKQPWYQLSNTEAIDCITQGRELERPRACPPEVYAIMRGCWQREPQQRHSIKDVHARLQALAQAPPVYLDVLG

Structure (SMILES)	percent degradation of TPM3-TRKA protein at 0.01 µM
O=C1CCC(N2C(=O)c3ccc(NCCOCCN4CCN(c5cccc(-c6cnc7ccc(N8CCC[C@@H]8c8cccc(F)c8)nn67)n5)CC4)cc3C2=O)C(=O)N1 (stereo partly drawn) [TR-176, 2-(2,6-Dioxopiperidin-3-yl)-5-((2-(2-(4-(6-(6-((R)-2-(3-fluorophenyl)pyrrolidin-1-yl)imidazo[1,2-b]pyridazin-3-yl)pyridin-2-yl)piperazin-1-yl)ethoxy)ethyl)amino) isoindoline-1,3-dione]	> 80%
O=C1CCC(N2C(=O)c3ccc(NCCOCCOCCN4CCN(c5cccc(-c6cnc7ccc(N8CCC[C@H]8c8cccc(F)c8)nn67)n5)CC4)cc3C2=O)C(=O)N1 (stereo partly drawn) [TR-177, 2-(2,6-Dioxopiperidin-3-yl)-5-((2-(2-(2-(4-(6-(6-((S)-2-(3-fluorophenyl)pyrrolidin-1-yl)imidazo[1,2-b]pyridazin-3-yl)pyridin-2-yl)piperazin-1-yl)ethoxy)ethoxy)ethyl)amino) isoindoline-1,3-dione]	> 80%
O=C1CCC(N2Cc3cc(CCCN4CCN(c5cccc(-c6cnc7ccc(N8CCC[C@@H]8c8cccc(F)c8)nn67)n5)CC4)ccc3C2=O)C(=O)N1 (stereo partly drawn) [TR-186, 3-(5-(3-(4-(6-(6-((R)-2-(3-fluorophenyl)pyrrolidin-1-yl)imidazo[1,2-b]pyridazin-3-yl)pyridin-2-yl)piperazin-1-yl)propyl)-1-oxoisoindolin-2-yl)piperidine-2,6-dione]	> 80%
O=C1CCC(N2Cc3ccc(C#CC(=O)N4CCN(c5cccc(-c6cnc7ccc(N8CCC[C@@H]8c8cccc(F)c8)nn67)n5)CC4)cc3C2=O)C(=O)N1 (stereo partly drawn) [TR-202, 3-(6-(3-(4-(6-(6-((R)-2-(3-Fluorophenyl)pyrrolidin-1-yl)imidazo[1,2-b]pyridazin-3-yl)pyridin-2-yl)piperazin-1-yl)-3-oxoprop-1-yn-1-yl)-1-oxoisoindolin-2-yl)piperidine-2,6-dione]	50 to 80%
O=C1CCC(N2Cc3cc(C#CC(=O)N4CCN(c5cccc(-c6cnc7ccc(N8CCC[C@@H]8c8cccc(F)c8)nn67)n5)CC4)ccc3C2=O)C(=O)N1 (stereo partly drawn) [TR-203, 3-(5-(3-(4-(6-(6-((R)-2-(3-fluorophenyl)pyrrolidin-1-yl)imidazo[1,2-b]pyridazin-3-yl)pyridin-2-yl)piperazin-1-yl)-3-oxoprop-1-yn-1-yl)-1-oxoisoindolin-2-yl)piperidine-2,6-dione]	50 to 80%
O=C1CCC(N2C(=O)c3ccc(CCN4CCN(c5cccc(-c6cnc7ccc(N8CCC[C@@H]8c8cccc(F)c8)nn67)n5)CC4)cc3C2=O)C(=O)N1 (stereo partly drawn) [TR-204, 2-(2,6-dioxopiperidin-3-yl)-5-(2-(4-(6-(6-((R)-2-(3-fluorophenyl)pyrrolidin-1-yl)imidazo[1,2-6]pyridazin-3-yl)pyridin-2-yl)piperazin-1-yl)ethyl)isoindoline-1,3-dione]	> 80%
COc1ccc(CN(CCN2CCN(c3cccc(-c4cnc5ccc(N6CCC[C@@H]6c6cccc(F)c6)nn45)n3)CC2)c2ccc3c(c2)C(=O)N(C2CCC(=O)NC2=O)C3=O)cc1 (stereo partly drawn) [TR-214, 2-(2,6-Dioxo-3-piperidyl)-5-(2-(4-(6-(6-((2R)-2-(3-fluorophenyl)pyrrolidin-1-yl)imidazo[1,2-b]pyridazin-3-yl)-2-pyridyl)piperazin-1-yl)ethyl-((4-methoxyphenyl)methyl)amino) isoindoline-1,3-dione]	< 50%
Cn1c(=O)n(C2CCC(=O)NC2=O)c2cccc(NCCN3CCN(c4cccc(-c5cnc6ccc(N7CCC[C@@H]7c7cccc(F)c7)nn56)n4)CC3)c21 (stereo partly drawn) [TR-216, 3-[4-[2-[4-[6-[6-[(2R)-2-(3-Fluorophenyl)pyrrolidin-1-yl]imidazo[1,2-b]pyridazin-3-yl]-2-pyridyl]piperazin-1-yl]ethylamino]-3-methyl-2-oxo-benzimidazol-1-yl]piperidine-2,6-dione]	> 80%
Cn1c(=O)n(C2CCC(=O)NC2=O)c2cccc(NCCCN3CCN(c4cccc(-c5cnc6ccc(N7CCC[C@@H]7c7cccc(F)c7)nn56)n4)CC3)c21 (stereo partly drawn) [TR-217, 3-[4-[3-[4-[6-[6-[(2R)-2-(3-Fluorophenyl)pyrrolidin-1-yl]imidazo[1,2-b]pyridazin-3-yl]-2-pyridyl]piperazin-1-yl]propylamino]-3-methyl-2-oxo-benzimidazol-1-yl]piperidine-2,6-dione]	> 80%
O=C1CCC(N2Cc3cc(C#CC4CN(c5cccc(-c6cnc7ccc(N8CCC[C@@H]8c8cccc(F)c8)nn67)n5)C4)ccc3C2=O)C(=O)N1 (stereo partly drawn) [TR-219, 3-(5-((1-(6-(6-((R)-2-(3-Fluorophenyl)pyrrolidin-1-yl)imidazo[1,2-b]pyridazin-3-yl)pyridin-2-yl)azetidin-3-yl)ethynyl)-1-oxoisoindolin-2-yl)piperidine-2,6-dione]	50 to 80%

Results, then the compound that gave them:

percent degradation of TPM3-TRKA protein at 0.01 µM	Structure (SMILES)
> 80%	O=C1CCC(N2Cc3cc(C#CCN4CCN(c5cccc(-c6cnc7ccc(N8CCC[C@@H]8c8cccc(F)c8)nn67)n5)CC4)ccc3C2=O)C(=O)N1 (stereo partly drawn) [TR-188, 3-(5-(3-(4-(6-(6-((R)-2-(3-Fluorophenyl)pyrrolidin-1-yl)imidazo[1,2-b]pyridazin-3-yl)pyridin-2-yl)piperazin-1-yl)prop-1-yn-1-yl)-1-oxoisoindolin-2-yl)piperidine-2,6-dione]
> 80%	O=C1CCC(N2Cc3ccc(NCC(=O)N4CCN(c5cccc(-c6cnc7ccc(N8CCC[C@@H]8c8cccc(F)c8)nn67)n5)CC4)cc3C2=O)C(=O)N1 (stereo partly drawn) [TR-189, 3-(6-((2-(4-(6-(6-((R)-2-(3-fluorophenyl)pyrrolidin-1-yl)imidazo[1,2-b]pyridazin-3-yl)pyridin-2-yl)piperazin-1-yl)-2-oxoethyl)amino)-1-oxoisoindolin-2-yl)piperidine-2,6-dione]
> 80%	O=C1CCC(N2Cc3cc(NCCN4CCN(c5cccc(-c6cnc7ccc(N8CCC[C@@H]8c8cccc(F)c8)nn67)n5)CC4)ccc3C2=O)C(=O)N1 (stereo partly drawn) [TR-191, 3-(5-((2-(4-(6-(6-((R)-2-(3-fluorophenyl)pyrrolidin-1-yl)imidazo[1,2-b]pyridazin-3-yl)pyridin-2-yl)piperazin-1-yl)ethyl)amino)-1-oxoisoindolin-2-yl)piperidine-2,6-dione]
50 to 80%	O=C1CCC(N2Cc3ccc(NCCN4CCN(c5cccc(-c6cnc7ccc(N8CCC[C@@H]8c8cccc(F)c8)nn67)n5)CC4)cc3C2=O)C(=O)N1 (stereo partly drawn) [TR-196, 3-(6-((2-(4-(6-(6-((R)-2-(3-fluorophenyl)pyrrolidin-1-yl)imidazo[1,2-b]pyridazin-3-yl)pyridin-2-yl)piperazin-1-yl)ethyl)amino)-1-oxoisoindolin-2-yl)piperidine-2,6-dione]
50 to 80%	O=C1CCC(N2Cc3cc(C#CC4CCN(c5cccc(-c6cnc7ccc(N8CCC[C@@H]8c8cccc(F)c8)nn67)n5)CC4)ccc3C2=O)C(=O)N1 (stereo partly drawn) [TR-208, 3-(5-((1-(6-(6-((R)-2-(3-fluorophenyl)pyrrolidin-1-yl)imidazo[1,2-b]pyridazin-3-yl)pyridin-2-yl)piperidin-4-yl)ethynyl)-1-oxoisoindolin-2-yl)piperidine-2,6-dione]
50 to 80%	O=C1CCC(N2Cc3cc(NCC4CN(c5cccc(-c6cnc7ccc(N8CCC[C@@H]8c8cccc(F)c8)nn67)n5)C4)ccc3C2=O)C(=O)N1 (stereo partly drawn) [TR-210, 3-(5-(((1-(6-(6-((R)-2-(3-Fluorophenyl)pyrrolidin-1-yl)imidazo[1,2-b]pyridazin-3-yl)pyridin-2-yl)azetidin-3-yl)methyl)amino)-1-oxoisoindolin-2-yl)piperidine-2,6-dione]
50 to 80%	O=C1CCC(N2Cc3cc(NCC4CCN(c5cccc(-c6cnc7ccc(N8CCC[C@@H]8c8cccc(F)c8)nn67)n5)CC4)ccc3C2=O)C(=O)N1 (stereo partly drawn) [TR-218, 3-(5-(((1-(6-(6-((R)-2-(3-fluorophenyl)pyrrolidin-1-yl)imidazo[1,2-b]pyridazin-3-yl)pyridin-2-yl)piperidin-4-yl)methyl)amino)-1-oxoisoindolin-2-yl)piperidine-2,6-dione]

Same assay, conditions: KM12, 16 h, read-out: Degradation (at 10 nM)

Structure (SMILES)	percent degradation of TPM3-TRKA protein at 0.01 µM
O=C1CCC(N2C(=O)c3ccc(OCCN4CCN(c5cccc(-c6cnc7ccc(N8CCC[C@@H]8c8cccc(F)c8)nn67)n5)CC4)cc3C2=O)C(=O)N1 (stereo partly drawn) [TR-173, 2˜ (2,6-dioxopiperidin-3-yl)-5-(2-(4-(6-(6-((R)-2-(3-fluorophenyl)pyrrolidin-1-yl)imidazo[1,2-b]pyridazin-3-yl)pyridin-2-yl)piperazin-1-yl)ethoxy) isoindoline-1,3-dione]	> 80%
O=C1CCC(N2C(=O)c3ccc(N4CCC(N5CCN(c6cccc(-c7cnc8ccc(N9CCC[C@@H]9c9cccc(F)c9)nn78)n6)CC5)CC4)cc3C2=O)C(=O)N1 (stereo partly drawn) [TR-182, 2-(2,6-dioxopiperidin-3-yl)-5-(4-(4-(6-(6-((R)-2-(3-fluorophenyl)pyrrolidin-1-yl)imidazo[1,2-b]pyridazin-3-yl)pyridin-2-yl)piperazin-1-yl)piperidin-1-yl)isoindoline-1,3-dione]	> 80%
O=C1CCC(N2C(=O)c3ccc(N4CC(N5CCN(c6cccc(-c7cnc8ccc(N9CCC[C@@H]9c9cccc(F)c9)nn78)n6)CC5)C4)cc3C2=O)C(=O)N1 (stereo partly drawn) [TR-184, 2-(2,6-dioxopiperidin-3-yl)-5-(3-(4-(6-(6-((R)-2-(3-fluorophenyl)pyrrolidin-1-yl)imidazo[1,2-b]pyridazin-3-yl)pyridin-2-yl)piperazin-1-yl)azetidin-1-yl)isoindoline-1,3-dione]	> 80%
